{"source": "paper PMC11774245", "about": "(Journal of Natural Products, 2025)", "key": {"5-HT1A receptor": {"target": "T1, 5-HT1A receptor (Homo sapiens, UniProt P08908)", "T1 construct": "gene HTR1A", "T1 sequence (P08908 1-422)": "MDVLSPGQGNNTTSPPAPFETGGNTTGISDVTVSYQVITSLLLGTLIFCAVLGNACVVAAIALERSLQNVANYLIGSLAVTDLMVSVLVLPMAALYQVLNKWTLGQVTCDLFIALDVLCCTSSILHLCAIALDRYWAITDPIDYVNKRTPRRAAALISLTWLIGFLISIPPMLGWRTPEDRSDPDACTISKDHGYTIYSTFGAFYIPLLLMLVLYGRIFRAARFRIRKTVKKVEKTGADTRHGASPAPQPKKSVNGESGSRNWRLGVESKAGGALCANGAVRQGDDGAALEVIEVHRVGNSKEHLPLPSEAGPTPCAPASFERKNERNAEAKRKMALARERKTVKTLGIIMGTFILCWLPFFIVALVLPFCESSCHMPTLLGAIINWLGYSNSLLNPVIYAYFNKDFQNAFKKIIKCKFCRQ", "test": "radioligand displacement of [3H]-8-hydroxy-DPAT on membranes; supported by PathHunter β-arrestin PAM assay in CHO-K1 cells with human 5-HT1A", "format": "binding", "settings": "read-out: % inhibition at 10 μM; 20% at 1 μM %"}, "CB2 receptor": {"target": "T2, CB2 receptor (Homo sapiens, UniProt P34972)", "T2 construct": "gene CNR2", "T2 sequence (P34972 whole entry)": "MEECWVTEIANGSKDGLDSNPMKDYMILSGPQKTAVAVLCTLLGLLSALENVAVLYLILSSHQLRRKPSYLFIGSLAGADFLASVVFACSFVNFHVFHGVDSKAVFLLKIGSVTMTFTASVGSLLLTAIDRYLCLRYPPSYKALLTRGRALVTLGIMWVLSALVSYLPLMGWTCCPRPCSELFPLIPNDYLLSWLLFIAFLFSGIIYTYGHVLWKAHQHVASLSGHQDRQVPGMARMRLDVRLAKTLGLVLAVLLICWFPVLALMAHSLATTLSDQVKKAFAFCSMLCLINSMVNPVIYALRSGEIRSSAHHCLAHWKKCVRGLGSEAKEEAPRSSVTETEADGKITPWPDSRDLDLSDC", "test": "radioligand displacement of [3H]-CP55940 on membranes", "format": "binding", "settings": "read-out: % inhibition at 10 μM; none at 1 μM %"}}}
{"smiles": "CCCCCc1cc(O)c2c(c1)OC1(C)CCC3C1C2C3(C)C", "note": "(racemic) [(±)-CBL]", "values": [{"measurement": "inhibition at 10 µM", "setting": "5-HT1A receptor", "result": 75, "unit": "%"}, {"measurement": "inhibition at 10 µM", "setting": "CB2 receptor", "result": 68, "unit": "%"}]}
